The text below walks through data of ChEMBL document CHEMBL1201862, “PubChem BioAssay data set” (2004).

Structures are written as SMILES.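 Following 48 hours of exposure in 96-well plates, responses at five concentrations were used to interpolate endpoints linearly. At the GI50, growth is halved.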 Calls of active or inactive are those of the source. Rule as the data show it: active = GI50 up to about 1.1 µM and inactive = higher.

Test systems include HL-60; RPMI-8226; HCT-15; ACHN; HOP-92; UACC-62; RXF 393; SN12C; SF-268; KM12; NCI-H226; SF-295; MOLT-4; NCI-H522; M14; OVCAR-5; TK-10; U-251; HT-29; T47D.
Common to all, as to assay: inhibition of tumour cell growth, NCI panel, 48 h

Take `O=C(Nc1nc2ncn(CCI)c2c(=O)[nH]1)c1ccccc1`: the GI50 in the assay on HL-60 is > 100 µM (inactive); with RPMI-8226 it was > 100 µM (inactive); in the assay on HCT-15 it was 98.6 µM; in the assay with ACHN it was > 75 µM (inactive); with HOP-92, 27.9 µM (inactive); with UACC-62, 53.8 µM (inactive). Further, the GI50 in the assay with RXF 393 is 26.9 µM (inactive); with SN12C it was 59.3 µM (inactive); in the assay with SF-268, 21.5 µM (inactive); in the assay on KM12, > 100 µM (inactive); in the assay on NCI-H226, 23.4 µM (inactive); with SF-295, 34 µM (inactive). In addition, the GI50 with MOLT-4 was > 100 µM (inactive); with NCI-H522, 28.3 µM (inactive); in the assay on M14, > 100 µM (inactive); with OVCAR-5 it was > 100 µM (inactive); in the assay with TK-10, 31.3 µM (inactive); in the assay on U-251, 28.3 µM (inactive). Besides, the GI50 in the assay on HT-29 is > 100 µM (inactive).
Turning to `CCCCc1c2c(nc3c1CCc1cc(C=O)c(N)nc1-3)/C(=C/c1ccccc1)CCC2`, the GI50 is 63.1 µM (inactive) in the assay on HL-60; > 100 µM (inactive) with RPMI-8226; 86.3 µM in the assay with HCT-15; > 100 µM (inactive) in the assay with ACHN; > 100 µM (inactive) in the assay with HOP-92; > 100 µM (inactive) in the assay on UACC-62. The GI50 with RXF 393, in the assay with SN12C, with SF-268, in the assay on KM12, with NCI-H226 and in the assay on SF-295 was > 100 µM (inactive) in each case. Moreover, the GI50 was 52.2 µM (inactive) with MOLT-4; > 100 µM (inactive) with NCI-H522; > 100 µM (inactive) with M14; > 100 µM (inactive) with OVCAR-5; > 100 µM (inactive) with TK-10; > 100 µM (inactive) in the assay on U-251. Besides, in the assay with HT-29, the GI50 is > 100 µM (inactive).
For `Cc1ccc(Sc2ccccc2N)cc1`, the GI50 in the assay on HL-60 was 18.9 µM (inactive); in the assay on RPMI-8226, 19.3 µM (inactive); in the assay on HCT-15, 37.8 µM; in the assay with ACHN it was 37.7 µM (inactive); in the assay with HOP-92 it was 22.7 µM (inactive); with UACC-62, 53.2 µM (inactive). Besides, the GI50 was 18.7 µM (inactive) in the assay with RXF 393; 41.1 µM (inactive) with SN12C; 21 µM (inactive) with SF-268; 25.5 µM (inactive) in the assay on KM12; 17.5 µM (inactive) in the assay on NCI-H226; 78.2 µM (inactive) in the assay with SF-295. For the same compound, the GI50 with MOLT-4 is 18.4 µM (inactive); in the assay on NCI-H522 it was 14.8 µM (inactive); with M14, 32.7 µM (inactive); in the assay with OVCAR-5, > 100 µM (inactive); in the assay on TK-10 it was 70.5 µM (inactive); in the assay with U-251, 67.3 µM (inactive). In addition, in the assay on HT-29, the GI50 is 31.1 µM (inactive).
Take `CN1CCC(O)(C(C)(C)C)CC1`: the GI50 in the assay on HL-60 was > 100 µM (inactive); with RPMI-8226 it was > 100 µM (inactive); in the assay with T47D, > 100 µM (inactive); in the assay on HCT-15, above 100 µM; in the assay on ACHN, > 100 µM (inactive); with UACC-62 it was > 100 µM (inactive). Also, the GI50 with RXF 393, with SN12C, with SF-268, with KM12, with NCI-H226 and in the assay on SF-295 was > 100 µM (inactive) each time. The GI50 in the assay on MOLT-4, in the assay on M14, in the assay with OVCAR-5, in the assay with TK-10, with U-251 and with HT-29 was > 100 µM (inactive) each time.
In the case of `CCN(CCCl)CCCNc1c2ccccc2nc2ccc(OC)cc12`, the GI50 with HL-60 was 0.039 µM (active); in the assay on RPMI-8226, 0.0637 µM (active); with HCT-15, 0.257 µM; in the assay with ACHN, 0.149 µM (active); with HOP-92, 0.133 µM (active); in the assay with UACC-62 it was 0.118 µM (active). The GI50 was 0.215 µM (active) in the assay with RXF 393; 0.0548 µM (active) in the assay on SN12C; 0.122 µM (active) in the assay on SF-268; 0.141 µM (active) in the assay on KM12; 0.0678 µM (active) in the assay with NCI-H226; 0.115 µM (active) in the assay with SF-295. The GI50 in the assay with MOLT-4 was 0.0158 µM (active); with NCI-H522 it was 0.144 µM (active); in the assay with M14, 0.522 µM (active); in the assay with OVCAR-5, 0.344 µM (active); with TK-10, 1.01 µM (active); with U-251, 0.199 µM (active). Also, the GI50 with HT-29 is 0.0853 µM (active).
Regarding `CC1OC(CC2C=CCc3c(O)c4c(c(O)c32)C(=O)c2ccccc2C4=O)CC(NC(=O)C(F)(F)F)C1O` (stereo not given), the GI50 with HL-60 was 11.8 µM (inactive); in the assay on RPMI-8226 it was 4.28 µM (inactive); in the assay with HCT-15 it was 11.9 µM; in the assay on ACHN, 10.9 µM (inactive); in the assay on HOP-92 it was 2.92 µM (inactive); in the assay with UACC-62 it was 4.71 µM (inactive). Besides, the GI50 with RXF 393 was 2.52 µM (inactive); in the assay on SN12C, 5.5 µM (inactive); in the assay on SF-268, 10.3 µM (inactive); in the assay on KM12, 15.9 µM (inactive); with NCI-H226 it was 13.7 µM (inactive); in the assay on SF-295, 5.74 µM (inactive). Moreover, the GI50 is 7.21 µM (inactive) in the assay with MOLT-4; 18.1 µM (inactive) with NCI-H522; 4.29 µM (inactive) in the assay on M14; 42.8 µM (inactive) with OVCAR-5; 2.29 µM (inactive) in the assay with TK-10; 3.94 µM (inactive) in the assay with U-251. In the assay with HT-29, the GI50 is 14.4 µM (inactive).
Consider `CCC12C=CCN3CCC4(C(=C(C(=O)OC)[C@@H]1O)Nc1ccccc14)C32` (stereo not given in full), for which the GI50 is 2 µM (inactive) in the assay on HL-60; 2.17 µM (inactive) with RPMI-8226; 1.57 µM in the assay with HCT-15; 1.56 µM (inactive) in the assay with ACHN; 1.6 µM (inactive) in the assay on HOP-92; 1.77 µM (inactive) in the assay on UACC-62. Further, the GI50 in the assay with RXF 393 was 1.36 µM (inactive); with SN12C it was 2.3 µM (inactive); in the assay with SF-268, 2.29 µM (inactive); in the assay on KM12, 1.7 µM (inactive); in the assay on NCI-H226 it was 1.26 µM (inactive); in the assay on SF-295 it was 2.05 µM (inactive). The GI50 is 2.43 µM (inactive) with MOLT-4; 1.61 µM (inactive) with NCI-H522; 2.2 µM (inactive) in the assay on M14; 2.44 µM (inactive) in the assay with OVCAR-5; 2.24 µM (inactive) in the assay with TK-10; 2.24 µM (inactive) in the assay on U-251. The GI50 in the assay with HT-29 was 1.98 µM (inactive).
Turning to `O=C(O)c1ccc(/N=C(\C(=N\c2ccc(C(=O)O)cc2)c2ccccc2)c2ccccc2)cc1`, the GI50 is > 100 µM (inactive) in the assay on RPMI-8226; > 100 µM (inactive) with T47D; above 100 µM in the assay with HCT-15; > 100 µM (inactive) in the assay with ACHN; > 100 µM (inactive) with UACC-62; > 100 µM (inactive) in the assay with RXF 393. For the same compound, the GI50 with SN12C, in the assay on SF-268, in the assay with KM12, in the assay on NCI-H226, in the assay with SF-295 and in the assay on MOLT-4 was > 100 µM (inactive) each time. Moreover, the GI50 in the assay on M14, with OVCAR-5, in the assay with TK-10 and in the assay on U-251 was > 100 µM (inactive) throughout.
For the compound `CC(=O)OCSc1ncnc2c1ncn2CN1CCOCC1`, the GI50 with HL-60 was 6.22 µM (inactive); with RPMI-8226, 4.44 µM (inactive); in the assay on HCT-15 it was 21.1 µM; in the assay with ACHN, 33 µM (inactive); in the assay on HOP-92 it was 1.08 µM (active); in the assay on UACC-62, 4.81 µM (inactive). The GI50 with RXF 393 is 14.8 µM (inactive); in the assay with SN12C, 60.1 µM (inactive); in the assay on SF-268 it was 31.3 µM (inactive); in the assay on KM12, 51.1 µM (inactive); in the assay with NCI-H226, > 100 µM (inactive); in the assay with SF-295, 49.9 µM (inactive). The GI50 is 4.12 µM (inactive) in the assay with MOLT-4; 3.27 µM (inactive) with NCI-H522; 2.25 µM (inactive) with M14; 18.5 µM (inactive) in the assay with OVCAR-5; 7.05 µM (inactive) in the assay on TK-10; 47.8 µM (inactive) with U-251. In addition, the GI50 with HT-29 is 13.9 µM (inactive).
For the compound `C=CC[C@H](O)[C@@](NC(=O)OCc1ccccc1)(Sc1ccc(C)cc1)C(F)(F)F`, the GI50 in the assay with HL-60 was 11.5 µM (inactive); with RPMI-8226, 23.4 µM (inactive); in the assay on HCT-15 it was 24.9 µM; in the assay on ACHN, > 100 µM (inactive); with HOP-92, 38.6 µM (inactive); with UACC-62 it was 30.7 µM (inactive). The GI50 is 23.3 µM (inactive) in the assay with RXF 393; 17.3 µM (inactive) in the assay on SN12C; 18.1 µM (inactive) with SF-268; 25.8 µM (inactive) in the assay on KM12; 16.5 µM (inactive) in the assay with NCI-H226; 21.9 µM (inactive) in the assay on SF-295. The GI50 in the assay with MOLT-4 was 20.3 µM (inactive); in the assay on NCI-H522, 15.5 µM (inactive); in the assay with M14 it was 20.7 µM (inactive); with OVCAR-5, 28.3 µM (inactive); with TK-10 it was 33.8 µM (inactive); with U-251 it was 14.5 µM (inactive). Further, the GI50 with HT-29 is 23.9 µM (inactive).
With `CCOC(=O)C1=C(C)N(c2ccc(C)cc2)C2(O)C=CC(O)=C3C(=O)c4ccccc4C(=O)C312` (stereo not given), the GI50 in the assay with HL-60 was < 0.01 µM (active); in the assay with RPMI-8226 it was 11.1 µM (inactive); with HCT-15, 22.8 µM; in the assay with ACHN, 22.7 µM (inactive); in the assay on HOP-92 it was 19.3 µM (inactive); in the assay with UACC-62 it was 33.1 µM (inactive). Also, the GI50 in the assay on RXF 393 is 28.8 µM (inactive); with SN12C it was 32.4 µM (inactive); in the assay with SF-268, 45.2 µM (inactive); in the assay with KM12, 35.6 µM (inactive); in the assay with NCI-H226, 59.3 µM (inactive); in the assay on SF-295, 68.1 µM (inactive). The GI50 was 0.374 µM (active) with MOLT-4; 16.1 µM (inactive) with NCI-H522; 36.6 µM (inactive) in the assay with M14; 54.2 µM (inactive) in the assay on OVCAR-5; 44 µM (inactive) in the assay on TK-10; 39.7 µM (inactive) with U-251. In addition, the GI50 in the assay on HT-29 was 25 µM (inactive).
